Measurements taken from PMC6478789, “A chemical toolbox for the study of bromodomains and epigenetic signaling” (Nature Communications, 2019).

Columns and labels:
GCN5L2 = GCN5L2 (Homo sapiens, UniProt Q92830); test: Histone acetyltransferase (HAT) activity assay; format: biochemical;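 note: selectivity screen of BRD probe compounds across a panel of histone acetyltransferases, HAT activity in % with compound at 1 or 10 µM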
BRD1 = target: T1, BRD1 (Homo sapiens, UniProt O95696); test: BROMOscan ligand-binding assay; conditions: read-out: KD (BROMOscan); sheet prints no unit (nM)
T1 sequence (O95696 562-666 limits assumed): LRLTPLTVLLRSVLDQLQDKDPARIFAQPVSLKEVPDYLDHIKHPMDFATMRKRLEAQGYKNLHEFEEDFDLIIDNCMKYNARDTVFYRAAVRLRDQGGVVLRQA
Source text: (§1) BROMOscan is a binding assay based on the well-known KINOMEscan technology. This assay measures the binding of a DNA-tagged bromodomain to an immobilized BRD ligand. If an inhibitor is present, it will compete with the bromodomain binding to the immobilized ligand, resulting in reduction of a quantitative PCR (qPCR) signal in a dose-dependent manner.

BRD3(2) = BRD3(2) (Homo sapiens, UniProt Q15059); test: BROMOscan ligand-binding assay; conditions: read-out: KD (BROMOscan); sheet prints no unit (nM)
Sequence of BRD3(2) (Q15059 306-415 limits assumed): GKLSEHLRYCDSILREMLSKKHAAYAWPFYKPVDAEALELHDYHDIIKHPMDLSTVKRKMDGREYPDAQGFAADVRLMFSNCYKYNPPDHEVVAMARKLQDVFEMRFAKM
Source text: as §1

BRD9 = conditions: ITC data; ref 11 (suppl.); read-out: KD (nM), off target BRD9; cited from earlier work
MYST3 = MYST3 (Homo sapiens, UniProt Q92794); test: Histone acetyltransferase (HAT) activity assay; format: biochemical;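 note: selectivity screen of bromodomain probe compounds across a panel of histone acetyltransferases, read out as enzyme activity in %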
Sequence of MYST3 (Q92794 whole entry, species assumed): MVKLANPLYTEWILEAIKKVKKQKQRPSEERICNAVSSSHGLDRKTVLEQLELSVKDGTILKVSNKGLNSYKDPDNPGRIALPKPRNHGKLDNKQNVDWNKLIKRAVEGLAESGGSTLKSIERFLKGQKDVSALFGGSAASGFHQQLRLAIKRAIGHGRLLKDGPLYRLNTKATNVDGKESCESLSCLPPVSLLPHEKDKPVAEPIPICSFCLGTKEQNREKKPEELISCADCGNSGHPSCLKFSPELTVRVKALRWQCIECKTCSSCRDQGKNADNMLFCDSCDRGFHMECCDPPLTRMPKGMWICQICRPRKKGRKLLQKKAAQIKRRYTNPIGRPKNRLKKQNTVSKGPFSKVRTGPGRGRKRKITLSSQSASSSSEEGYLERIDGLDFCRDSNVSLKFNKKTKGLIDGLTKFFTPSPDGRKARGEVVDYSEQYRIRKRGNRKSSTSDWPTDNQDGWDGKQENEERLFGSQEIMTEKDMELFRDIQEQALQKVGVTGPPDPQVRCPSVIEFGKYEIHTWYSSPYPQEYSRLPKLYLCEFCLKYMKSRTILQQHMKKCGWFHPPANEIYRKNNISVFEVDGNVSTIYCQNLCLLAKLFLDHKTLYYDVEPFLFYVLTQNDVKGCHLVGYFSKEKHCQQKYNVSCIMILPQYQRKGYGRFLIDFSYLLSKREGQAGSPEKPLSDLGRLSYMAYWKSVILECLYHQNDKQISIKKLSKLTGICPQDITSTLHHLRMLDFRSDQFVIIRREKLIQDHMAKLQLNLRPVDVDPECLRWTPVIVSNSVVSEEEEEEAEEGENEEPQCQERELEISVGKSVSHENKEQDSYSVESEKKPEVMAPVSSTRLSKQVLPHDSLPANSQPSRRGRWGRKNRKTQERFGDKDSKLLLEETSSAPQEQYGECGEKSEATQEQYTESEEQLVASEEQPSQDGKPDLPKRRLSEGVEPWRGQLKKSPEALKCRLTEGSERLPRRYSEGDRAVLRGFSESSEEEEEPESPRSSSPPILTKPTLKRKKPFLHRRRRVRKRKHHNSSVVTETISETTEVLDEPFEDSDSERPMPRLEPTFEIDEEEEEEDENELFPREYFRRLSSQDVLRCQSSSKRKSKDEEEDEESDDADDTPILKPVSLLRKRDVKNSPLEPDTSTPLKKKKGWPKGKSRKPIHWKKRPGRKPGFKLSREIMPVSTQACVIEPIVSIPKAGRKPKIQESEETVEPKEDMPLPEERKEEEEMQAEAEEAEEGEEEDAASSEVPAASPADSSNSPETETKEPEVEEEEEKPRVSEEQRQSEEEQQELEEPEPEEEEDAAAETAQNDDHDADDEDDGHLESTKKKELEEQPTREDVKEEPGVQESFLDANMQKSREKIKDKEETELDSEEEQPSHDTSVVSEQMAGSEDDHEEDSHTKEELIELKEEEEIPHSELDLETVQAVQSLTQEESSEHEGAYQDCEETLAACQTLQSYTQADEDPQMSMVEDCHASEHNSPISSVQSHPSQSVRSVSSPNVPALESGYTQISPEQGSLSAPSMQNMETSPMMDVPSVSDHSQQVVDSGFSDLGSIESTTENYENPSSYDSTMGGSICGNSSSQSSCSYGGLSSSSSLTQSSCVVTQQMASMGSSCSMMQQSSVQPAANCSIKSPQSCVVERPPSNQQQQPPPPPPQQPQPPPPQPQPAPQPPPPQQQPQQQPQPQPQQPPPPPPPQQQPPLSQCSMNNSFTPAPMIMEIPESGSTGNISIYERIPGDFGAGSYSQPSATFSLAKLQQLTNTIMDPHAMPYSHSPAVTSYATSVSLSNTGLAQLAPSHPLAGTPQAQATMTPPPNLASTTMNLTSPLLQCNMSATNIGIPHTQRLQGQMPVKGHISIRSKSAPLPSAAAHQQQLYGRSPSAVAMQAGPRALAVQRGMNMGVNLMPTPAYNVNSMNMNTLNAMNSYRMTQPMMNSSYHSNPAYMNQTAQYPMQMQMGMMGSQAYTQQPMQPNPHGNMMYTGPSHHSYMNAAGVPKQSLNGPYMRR

BRD4(2) = BRD4(2) (Homo sapiens, UniProt O60885); test: BROMOscan ligand-binding assay; conditions: read-out: KD (BROMOscan); sheet prints no unit (nM)
Source text: as §1

BRD3(1,2) = BRD3(1,2) (Homo sapiens, UniProt Q15059); test: BROMOscan ligand-binding assay; conditions: read-out: KD (BROMOscan); sheet prints no unit (nM)
Source text: as §1

MYST1 = target: T2, MYST1 (Homo sapiens, UniProt Q9H7Z6); test: Histone acetyltransferase (HAT) activity assay; format: biochemical;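 note: selectivity screen across a panel of histone acetyltransferases, with compounds tested at 1 and 10 µM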
T2 sequence (Q9H7Z6 1-458): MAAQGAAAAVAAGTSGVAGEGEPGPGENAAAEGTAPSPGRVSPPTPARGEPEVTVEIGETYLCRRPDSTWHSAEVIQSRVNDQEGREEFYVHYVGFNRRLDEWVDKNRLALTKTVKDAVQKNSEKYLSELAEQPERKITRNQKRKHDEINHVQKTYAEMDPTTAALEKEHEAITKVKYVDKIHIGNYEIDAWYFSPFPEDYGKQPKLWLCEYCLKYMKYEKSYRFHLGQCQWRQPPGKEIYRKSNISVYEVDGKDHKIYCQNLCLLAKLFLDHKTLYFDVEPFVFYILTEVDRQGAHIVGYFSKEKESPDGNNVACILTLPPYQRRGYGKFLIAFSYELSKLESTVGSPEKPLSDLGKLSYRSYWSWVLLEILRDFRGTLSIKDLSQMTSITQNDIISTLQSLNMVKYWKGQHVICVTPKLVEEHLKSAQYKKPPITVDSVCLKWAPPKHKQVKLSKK

BRD2(2) = BRD2(2) (Homo sapiens, UniProt P25440); test: BROMOscan ligand-binding assay; conditions: read-out: KD (BROMOscan); sheet prints no unit (nM)
Source text: as §1

BRPF1B = conditions: ITC data; ref 11 (suppl.); cited from earlier work
ATAD2B = target: T3, ATAD2B (Homo sapiens, UniProt Q9ULI0); test: BROMOscan ligand-binding assay; conditions: read-out: KD (BROMOscan); sheet prints no unit (nM)
T3 sequence (Q9ULI0 951-1066 limits assumed): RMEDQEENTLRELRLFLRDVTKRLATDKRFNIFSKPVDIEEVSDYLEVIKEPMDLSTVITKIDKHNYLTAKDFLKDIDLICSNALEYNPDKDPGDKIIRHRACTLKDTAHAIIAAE
Source text: as §1

ATAD2A = target: T4, ATAD2A (Homo sapiens, UniProt Q6PL18); test: BROMOscan ligand-binding assay; conditions: read-out: KD (BROMOscan); sheet prints no unit (nM)
T4 sequence (Q6PL18 980-1092 limits assumed): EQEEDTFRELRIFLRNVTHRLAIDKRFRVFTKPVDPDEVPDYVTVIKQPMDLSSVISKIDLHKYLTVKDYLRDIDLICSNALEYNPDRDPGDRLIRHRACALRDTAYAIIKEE
Source text: as §1

TAF1(2) = target: T5, TAF1(2) (Homo sapiens, UniProt P21675); test: BROMOscan ligand-binding assay; conditions: read-out: KD (BROMOscan); sheet prints no unit (nM)
T5 sequence (P21675 1519-1628 limits assumed): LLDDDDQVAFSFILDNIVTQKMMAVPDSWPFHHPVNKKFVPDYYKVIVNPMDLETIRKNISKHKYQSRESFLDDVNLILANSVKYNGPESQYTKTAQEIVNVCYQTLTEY
Source text: as §1

BRD2(1,2) = BRD2(1,2) (Homo sapiens, UniProt P25440); test: BROMOscan ligand-binding assay; conditions: read-out: KD (BROMOscan); sheet prints no unit (nM)
Sequence of BRD2(1,2) (P25440 71-455 limits assumed): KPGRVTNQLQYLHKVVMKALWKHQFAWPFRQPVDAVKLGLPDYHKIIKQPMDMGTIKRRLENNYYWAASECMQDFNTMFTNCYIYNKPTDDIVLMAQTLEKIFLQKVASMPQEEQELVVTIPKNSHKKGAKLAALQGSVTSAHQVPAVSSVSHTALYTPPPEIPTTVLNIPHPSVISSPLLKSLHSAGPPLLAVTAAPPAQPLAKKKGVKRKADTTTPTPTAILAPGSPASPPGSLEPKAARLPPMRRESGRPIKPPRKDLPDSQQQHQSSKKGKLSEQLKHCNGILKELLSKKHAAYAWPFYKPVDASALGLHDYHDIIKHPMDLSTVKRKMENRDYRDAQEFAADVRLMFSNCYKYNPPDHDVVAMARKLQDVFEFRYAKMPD
Source text: as §1

BRD2(1) = BRD2(1) (Homo sapiens, UniProt P25440); test: BROMOscan ligand-binding assay; conditions: read-out: KD (BROMOscan); sheet prints no unit (nM)
Sequence of BRD2(1) (P25440 74-180 limits assumed): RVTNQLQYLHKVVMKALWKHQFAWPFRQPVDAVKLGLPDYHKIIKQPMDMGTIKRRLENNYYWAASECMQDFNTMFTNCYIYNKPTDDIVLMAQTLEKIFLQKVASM
Source text: as §1

EP300 = EP300 (Homo sapiens, UniProt Q09472); test: Histone acetyltransferase (HAT) activity assay; format: biochemical;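 note: selectivity screen of bromodomain probe compounds against histone acetyltransferases, with enzyme activity given in percent for compounds tested at 1 and 10 µM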
Sequence of EP300 (Q09472 whole entry, species assumed): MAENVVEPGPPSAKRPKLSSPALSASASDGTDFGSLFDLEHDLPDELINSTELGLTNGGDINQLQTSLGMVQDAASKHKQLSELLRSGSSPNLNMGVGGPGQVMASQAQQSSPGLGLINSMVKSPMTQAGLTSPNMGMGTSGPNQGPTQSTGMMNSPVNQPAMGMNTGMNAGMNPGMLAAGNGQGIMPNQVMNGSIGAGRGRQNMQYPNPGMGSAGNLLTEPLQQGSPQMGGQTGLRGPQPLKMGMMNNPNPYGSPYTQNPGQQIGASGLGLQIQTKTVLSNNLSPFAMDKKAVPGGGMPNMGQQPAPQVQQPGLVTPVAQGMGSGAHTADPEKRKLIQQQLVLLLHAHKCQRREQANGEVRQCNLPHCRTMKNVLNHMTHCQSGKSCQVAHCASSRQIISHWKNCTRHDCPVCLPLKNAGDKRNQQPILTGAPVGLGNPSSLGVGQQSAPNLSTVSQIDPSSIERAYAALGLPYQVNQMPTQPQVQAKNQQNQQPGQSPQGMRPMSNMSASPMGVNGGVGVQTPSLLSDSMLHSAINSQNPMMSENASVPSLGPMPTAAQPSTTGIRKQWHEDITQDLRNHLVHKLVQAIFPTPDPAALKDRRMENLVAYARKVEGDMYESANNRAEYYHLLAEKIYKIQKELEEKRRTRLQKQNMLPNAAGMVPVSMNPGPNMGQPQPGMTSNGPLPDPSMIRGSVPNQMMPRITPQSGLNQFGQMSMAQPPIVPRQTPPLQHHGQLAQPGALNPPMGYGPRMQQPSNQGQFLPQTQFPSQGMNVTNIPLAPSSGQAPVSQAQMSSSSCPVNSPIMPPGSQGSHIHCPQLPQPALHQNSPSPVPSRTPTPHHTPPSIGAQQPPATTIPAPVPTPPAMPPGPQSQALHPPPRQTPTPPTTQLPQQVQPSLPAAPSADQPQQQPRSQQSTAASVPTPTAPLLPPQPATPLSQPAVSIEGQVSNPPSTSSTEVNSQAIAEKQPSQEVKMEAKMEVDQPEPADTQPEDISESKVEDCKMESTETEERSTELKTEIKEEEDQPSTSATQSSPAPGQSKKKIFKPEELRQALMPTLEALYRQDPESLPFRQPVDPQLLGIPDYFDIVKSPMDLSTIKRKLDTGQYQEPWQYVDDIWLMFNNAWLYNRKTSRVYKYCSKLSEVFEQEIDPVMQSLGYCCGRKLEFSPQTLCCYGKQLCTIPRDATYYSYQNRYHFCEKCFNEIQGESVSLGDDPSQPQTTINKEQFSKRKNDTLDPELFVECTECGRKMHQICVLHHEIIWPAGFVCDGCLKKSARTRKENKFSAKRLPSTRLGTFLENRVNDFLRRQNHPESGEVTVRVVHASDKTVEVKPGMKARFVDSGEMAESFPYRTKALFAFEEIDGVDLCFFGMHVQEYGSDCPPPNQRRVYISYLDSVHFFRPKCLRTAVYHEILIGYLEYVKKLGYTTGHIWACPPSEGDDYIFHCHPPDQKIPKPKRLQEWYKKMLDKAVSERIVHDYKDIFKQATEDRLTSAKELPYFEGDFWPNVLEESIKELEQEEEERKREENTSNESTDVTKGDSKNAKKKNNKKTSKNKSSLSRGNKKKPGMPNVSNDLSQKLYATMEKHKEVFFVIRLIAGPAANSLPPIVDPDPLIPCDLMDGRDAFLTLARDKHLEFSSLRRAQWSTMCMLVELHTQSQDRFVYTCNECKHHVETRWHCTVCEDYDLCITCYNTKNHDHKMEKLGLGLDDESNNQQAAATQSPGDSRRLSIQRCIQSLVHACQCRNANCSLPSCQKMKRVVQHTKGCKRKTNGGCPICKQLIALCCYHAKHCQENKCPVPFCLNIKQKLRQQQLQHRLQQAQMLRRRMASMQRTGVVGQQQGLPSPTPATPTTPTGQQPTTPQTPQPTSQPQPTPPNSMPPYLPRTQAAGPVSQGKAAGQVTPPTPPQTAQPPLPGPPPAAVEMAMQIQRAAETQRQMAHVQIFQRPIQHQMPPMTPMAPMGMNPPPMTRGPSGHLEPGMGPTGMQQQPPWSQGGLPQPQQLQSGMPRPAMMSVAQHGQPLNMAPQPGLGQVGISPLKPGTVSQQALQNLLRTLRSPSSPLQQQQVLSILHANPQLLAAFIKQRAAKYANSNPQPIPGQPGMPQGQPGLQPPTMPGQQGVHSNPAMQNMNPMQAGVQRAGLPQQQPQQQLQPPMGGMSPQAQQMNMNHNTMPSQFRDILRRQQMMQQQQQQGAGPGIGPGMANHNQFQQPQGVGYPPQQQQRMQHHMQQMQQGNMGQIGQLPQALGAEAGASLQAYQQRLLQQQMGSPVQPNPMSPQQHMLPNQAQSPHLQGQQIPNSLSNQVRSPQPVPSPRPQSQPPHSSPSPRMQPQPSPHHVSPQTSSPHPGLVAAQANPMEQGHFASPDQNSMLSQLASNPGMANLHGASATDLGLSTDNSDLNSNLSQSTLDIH

BAZ2B = target: T6, BAZ2B (Homo sapiens, UniProt Q9UIF8); test: BROMOscan ligand-binding assay; conditions: read-out: KD (BROMOscan); sheet prints no unit (nM)
T6 sequence (Q9UIF8 2060-2164 limits assumed): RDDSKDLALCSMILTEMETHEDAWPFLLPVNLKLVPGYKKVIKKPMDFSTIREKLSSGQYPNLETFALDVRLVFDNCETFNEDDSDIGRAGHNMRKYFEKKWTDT
Source text: as §1

MDA-MB-436 cells = test: Confluency with BRPF inhibitors and BAY-876; format: cell-based, human; conditions: 3 μM, 7 days
Procedure: Graph indicates mean, error bars denote s.d. from eight wells (from two independent assays) and p-value was computed using the Benjamini-Hochberg t test; ***p < 0.001. d Immunoblot validation of BRPF knockdown in MDA-MB-436 cells. e Quantitative real-time PCR (RT-qPCR) validation of BRPF knockdown in MDA-MB-436 cells. […] Raw data images are available in Supplementary Fig. 4
TNBC cell lines were seeded in sterile, transparent 384-well plates at 500 cells per well in 50 µl media. Chemical probes were delivered in dimethyl sulfoxide (DMSO). Cell confluency at 7 days was evaluated using an Incucyte ZOOM live cell imaging device (Essen Bioscence) and analyzed with the Incucyte ZOOM (2016A) software based on phase contrast image.

BRD4(1,2) = BRD4(1,2) (Homo sapiens, UniProt O60885); test: BROMOscan ligand-binding assay; conditions: read-out: KD (BROMOscan); sheet prints no unit (nM)
Source text: as §1

BRD3(1) = BRD3(1) (Homo sapiens, UniProt Q15059); test: BROMOscan ligand-binding assay; conditions: read-out: KD (BROMOscan); sheet prints no unit (nM)
Source text: as §1

BRD4(1) = BRD4(1) (Homo sapiens, UniProt O60885); test: BROMOscan ligand-binding assay; conditions: read-out: KD (BROMOscan); sheet prints no unit (nM)
Source text: as §1

BRPF2 = conditions: ITC data; ref 11 (suppl.); cited from earlier work
HAT1 = target: T7, HAT1 (Homo sapiens, UniProt O14929); test: Histone acetyltransferase (HAT) activity assay; format: biochemical;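 note: HAT selectivity screen of BRD probe compounds, enzyme activity in % measured with compound at 1 µM and 10 µM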
T7 sequence (O14929 1-419): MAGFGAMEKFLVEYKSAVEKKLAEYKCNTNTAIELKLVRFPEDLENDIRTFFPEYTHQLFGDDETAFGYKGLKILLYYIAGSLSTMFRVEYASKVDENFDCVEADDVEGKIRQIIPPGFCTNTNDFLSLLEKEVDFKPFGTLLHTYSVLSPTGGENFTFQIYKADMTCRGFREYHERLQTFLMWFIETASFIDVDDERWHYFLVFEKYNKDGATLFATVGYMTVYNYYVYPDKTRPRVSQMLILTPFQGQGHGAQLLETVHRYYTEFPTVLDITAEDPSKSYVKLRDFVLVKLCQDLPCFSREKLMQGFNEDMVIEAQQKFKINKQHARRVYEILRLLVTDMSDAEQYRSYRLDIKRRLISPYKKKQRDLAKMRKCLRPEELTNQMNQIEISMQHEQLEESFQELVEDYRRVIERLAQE

COc1cc(C#N)ccc1S(=O)(=O)Nc1ccc2c(c1)cc(C)c(=O)n2C [NIC57]
HATs Activity (%) (GCN5L2; 1µM): 100%
HATs Activity (%) (GCN5L2; 10µM): 96%
Kd (BRD1): 46 nM
Kd (BRD3(2)): > 30000 nM
Kd (BRD9): 998 nM
HATs Activity (%) (MYST3; 1µM): 98%
HATs Activity (%) (MYST3; 10µM): 99%
Kd (BRD4(2)): > 30000 nM
Kd (BRD3(1,2)): 12000 nM
HATs Activity (%) (MYST1; 1µM): 96%
HATs Activity (%) (MYST1; 10µM): 91%
Kd (BRD2(2)): > 30000 nM
Kd (BRPF1B): 31 nM
Kd (ATAD2B): > 30000 nM
Kd (ATAD2A): > 30000 nM
Kd (TAF1(2)): 4900 nM
Kd (BRD2(1,2)): 12000 nM
Kd (BRD2(1)): 5900 nM
HATs Activity (%) (EP300; 1µM): 94%
HATs Activity (%) (EP300; 10µM): 93%
Kd (BAZ2B): 9400 nM
synergy with BAY-876 (MDA-MB-436 cells): no synergy
Kd (BRD4(1,2)): 15000 nM
Kd (BRD3(1)): 7200 nM
Kd (BRD4(1)): 3300 nM
Kd (BRPF2): 108 nM
HATs Activity (%) (HAT1; 1µM): 104%
HATs Activity (%) (HAT1; 10µM): 104%
